{"source": "patent US10610575B2", "about": "“Method for improving feed digestibility in bovine animals” (DSM IP ASSETS B.V., priority 2015, dated 2020)", "test_system": "finishing Nelore cattle in feedlot", "experiment": "Animal performance trial: Crina Ruminants and Ronozyme Rumistar for finishing Nelore cattle in feedlot", "type": "in vivo", "method": "The study has been carried out at facilities of Animal Science Department at ESALQ/USP (University of São Paulo), Piracicaba-SP, Brazil. Treatments have been allocated in fifty pens, with 6 animals per pen. Water has been supplied for ad libitum consumption and feed once a day. Cattle have been withheld from feed and water for 16 hours before body weight (BW) assessment at the beginning and at the end of the experiment. After 28 and 56 days body weight (BW) has been assessed to monitor the partial average daily gain. [table] [table]", "data": [{"compound": "CC[C@@]1([C@@H]2O[C@@H]([C@H]3O[C@@](O)(CO)[C@H](C)C[C@@H]3C)C[C@@H]2C)CC[C@H]([C@]2(C)CC[C@]3(C[C@H](O)[C@@H](C)[C@@H]([C@@H](C)[C@@H](OC)[C@H](C)C(=O)O)O3)O2)O1", "note": "[MONENSIN, Monensin]", "values": [{"measurement": "ADG (average daily gain)", "setting": "After 59 days", "result": 1.342, "unit": "b kg/d"}, {"measurement": "DMI (dry matter intake)", "setting": "After 59 days", "result": 8.63, "unit": "b kg/d"}, {"measurement": "FE (feed efficiency), ADG:DMI", "setting": "After 59 days", "result": 0.155, "unit": "b"}, {"measurement": "ADG (average daily gain)", "setting": "adaptation period - 28 days", "result": 1.352, "unit": "b kg/d"}, {"measurement": "DMI (dry matter intake)", "setting": "adaptation period - 28 days", "result": 7.73, "unit": "b kg/d"}, {"measurement": "FE (feed efficiency), ADG:DMI", "setting": "adaptation period - 28 days", "result": 0.177, "unit": "bc"}]}]}
